Assay results from ChEMBL document CHEMBL1142279, “Optimization of 2,3,5-trisubstituted pyridine derivatives as potent allosteric Akt1 and Akt2 inhibitors” (Bioorg Med Chem Lett, 2008).

Columns and labels:
[1] = target: RAC-alpha serine/threonine-protein kinase (Homo sapiens) (UniProt P31749); assay: Inhibition of human recombinant Akt1
[2] = target: RAC-beta serine/threonine-protein kinase (Homo sapiens) (UniProt P31751); assay: Inhibition of human recombinant Akt2
[3] = target: RAC-alpha serine/threonine-protein kinase (Homo sapiens) (UniProt P31749); assay: Inhibition of Akt1 in human C33a cells; assay type: cell-based
[4] = target: RAC-beta serine/threonine-protein kinase (Homo sapiens) (UniProt P31751); assay: Inhibition of Akt2 in human C33a cells; assay type: cell-based
[5] = Inhibition of SGK
[6] = target: RAC-gamma serine/threonine-protein kinase (Homo sapiens) (UniProt Q9Y243); assay: Inhibition of human recombinant Akt3
RAC-gamma serine/threonine-protein kinase (Homo sapiens), sequence (Q9Y243 whole entry): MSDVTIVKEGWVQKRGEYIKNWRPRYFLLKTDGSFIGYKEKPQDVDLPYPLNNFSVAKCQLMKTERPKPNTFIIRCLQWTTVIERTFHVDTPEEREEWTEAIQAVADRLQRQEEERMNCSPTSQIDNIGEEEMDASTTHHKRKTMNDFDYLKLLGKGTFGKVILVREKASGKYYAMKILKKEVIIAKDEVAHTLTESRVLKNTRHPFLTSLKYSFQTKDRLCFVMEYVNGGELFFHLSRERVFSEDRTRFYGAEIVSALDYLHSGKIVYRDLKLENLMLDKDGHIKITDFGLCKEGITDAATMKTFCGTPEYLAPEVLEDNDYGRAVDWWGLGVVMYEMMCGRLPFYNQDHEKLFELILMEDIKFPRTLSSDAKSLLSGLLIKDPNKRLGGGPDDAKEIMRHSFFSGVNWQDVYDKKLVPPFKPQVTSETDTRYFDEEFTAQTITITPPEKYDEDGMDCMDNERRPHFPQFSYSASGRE

[7] = Inhibition of PKA
[8] = Inhibition of PKC
[9] = target: Protein kinase C alpha type (Homo sapiens) (UniProt P17252); assay: Inhibition of PKCalpha
[10] = Half life in dog at 0.25 mg/kg, iv; assay type: ADME, organism-based, Canis lupus familiaris; design: dose 0.25 mg/kg, route intravenous; settings: in vivo
[11] = Clearance in dog at 0.25 mg/kg, iv; assay type: ADME, organism-based, Canis lupus familiaris; design: dose 0.25 mg/kg, route intravenous; settings: in vivo
[12] = Volume of distribution at steady state in dog at 0.25 mg/kg, iv; assay type: ADME, organism-based, Canis lupus familiaris; design: dose 0.25 mg/kg, route intravenous; settings: in vivo, read-out: Vdss

RAC-beta serine/threonine-protein kinase (Homo sapiens), sequence (P31751 whole entry): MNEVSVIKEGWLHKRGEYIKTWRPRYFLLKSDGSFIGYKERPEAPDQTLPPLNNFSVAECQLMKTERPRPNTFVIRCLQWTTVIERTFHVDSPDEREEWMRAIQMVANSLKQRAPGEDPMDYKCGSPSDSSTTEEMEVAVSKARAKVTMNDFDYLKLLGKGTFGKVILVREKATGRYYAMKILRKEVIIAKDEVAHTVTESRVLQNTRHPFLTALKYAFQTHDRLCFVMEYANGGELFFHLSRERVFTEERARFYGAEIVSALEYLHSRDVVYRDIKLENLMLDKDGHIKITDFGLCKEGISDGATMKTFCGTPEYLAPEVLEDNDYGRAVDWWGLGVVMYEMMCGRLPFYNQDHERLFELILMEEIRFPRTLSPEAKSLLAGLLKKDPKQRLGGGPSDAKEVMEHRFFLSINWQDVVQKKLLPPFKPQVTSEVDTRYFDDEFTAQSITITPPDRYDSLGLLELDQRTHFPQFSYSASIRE
RAC-alpha serine/threonine-protein kinase (Homo sapiens), sequence (P31749 whole entry): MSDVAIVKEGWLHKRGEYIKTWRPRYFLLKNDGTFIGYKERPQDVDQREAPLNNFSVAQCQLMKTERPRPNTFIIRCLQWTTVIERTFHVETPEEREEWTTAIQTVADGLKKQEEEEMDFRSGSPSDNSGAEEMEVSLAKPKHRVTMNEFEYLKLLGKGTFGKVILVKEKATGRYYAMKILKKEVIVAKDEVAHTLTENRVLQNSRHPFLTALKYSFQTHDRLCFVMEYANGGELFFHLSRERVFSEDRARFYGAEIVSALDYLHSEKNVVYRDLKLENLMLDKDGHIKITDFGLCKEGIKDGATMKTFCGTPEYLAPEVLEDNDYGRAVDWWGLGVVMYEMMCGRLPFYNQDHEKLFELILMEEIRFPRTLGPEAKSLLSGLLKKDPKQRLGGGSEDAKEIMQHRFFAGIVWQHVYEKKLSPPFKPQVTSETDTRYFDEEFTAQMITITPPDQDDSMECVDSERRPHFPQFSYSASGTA

Activity [1] [nM]	Activity [2] [nM]	Activity [3] [nM]	Activity [4] [nM]	IC50 [5] [µM]	IC50 [7] [µM]	IC50 [8] [µM]	IC50 [9] [µM]	half-life [10] [h]	clearance [11] [mL/min/kg]	Vd [12] [L/kg]	Compound	Activity [6] [µM]
114	30	618	472	–	–	–	–	–	–	–	Nc1nnc(-c2cnc(-c3ccc(CNCCC(=O)c4ccccc4N)cc3)c(-c3ccccc3)c2)s1	–
214	90	1350	1350	> 50	–	–	–	–	–	–	Nc1nnc(-c2cnc(-c3ccc(CN4CCC(n5cc(-c6ccccn6)cn5)CC4)cc3)c(-c3ccccc3)c2)s1	–
210	105	> 50000	> 50000	–	–	–	–	–	–	–	Nc1ncnc2c1ncn2C1CCN(Cc2ccc(-c3ncc(-c4nnn[nH]4)cc3-c3ccccc3)cc2)CC1	> 50
85	22	516	330	> 50	–	–	–	–	–	–	Nc1nnc(-c2cnc(-c3ccc(CN4CCC(c5n[nH]c(-c6ccccn6)n5)CC4)cc3)c(-c3ccccc3)c2)s1	–
126	22	621	416	> 50	> 10	> 10	> 10	3.62	1.37	0.41	Nc1nnc(-c2cnc(-c3ccc(CN4CCC(n5ncc6c(N)ncnc65)CC4)cc3)c(-c3ccccc3)c2)s1	–
434	73	12600	3960	> 50	–	–	–	–	–	–	Nc1nnc(-c2cnc(-c3ccc(CN4CCC(n5c(=O)[nH]c6ncccc65)CC4)cc3)c(-c3ccccc3)c2)s1	–
180	121	288	1060	> 50	–	–	–	–	–	–	Nc1ncnc2c1cnn2C1CCN(Cc2ccc(-c3ncc(-c4ncon4)cc3-c3ccccc3)cc2)CC1	–

More lines, now with the values behind:

Compound	Activity [1] [nM]	Activity [2] [nM]	Activity [3] [nM]	Activity [4] [nM]	IC50 [5] [µM]	IC50 [7] [µM]	IC50 [8] [µM]	IC50 [9] [µM]	half-life [10] [h]	clearance [11] [mL/min/kg]	Vd [12] [L/kg]	Activity [6] [µM]
Nc1ncnc2c1cnn2C1CCN(Cc2ccc(-c3ncc(-c4nccs4)cc3-c3ccccc3)cc2)CC1	264	64	1650	3240	> 50	–	–	–	–	–	–	–
N#Cc1cnc(-c2ccc(CN3CCC(n4c(=O)[nH]c5ccccc54)CC3)cc2)c(-c2ccccc2)c1	762	3140	> 50000	> 50000	–	–	–	–	–	–	–	> 50
Nc1ncnc2c1cnn2C1CCN(Cc2ccc(-c3ncc(-c4ncccn4)cc3-c3ccccc3)cc2)CC1	306	62	1950	3460	> 50	–	–	–	–	–	–	–
Nc1nnc(-c2cnc(-c3ccc(CN4CCC(c5cc(-c6ccccn6)[nH]n5)CC4)cc3)c(-c3ccccc3)c2)s1	95	28	734	300	> 50	–	–	–	–	–	–	–
Nc1ncnc2c1cnn2C1CCN(Cc2ccc(-c3ncc(-c4ccccn4)cc3-c3ccccc3)cc2)CC1	1630	370	10000	8110	–	–	–	–	–	–	–	–
Nc1ncnc2c1cnn2C1CCN(Cc2ccc(-c3ncc(-c4nc[nH]n4)cc3-c3ccccc3)cc2)CC1	182	101	890	666	> 50	–	–	–	–	–	–	–
Nc1nnc(-c2cnc(-c3ccc(CN4CCC(c5cc(-c6ccncc6)[nH]n5)CC4)cc3)c(-c3ccccc3)c2)s1	123	38	407	153	> 50	–	–	–	–	–	–	–
Nc1nnc(-c2cnc(-c3ccc(CN4CCC(n5cc(-c6cnccn6)cn5)CC4)cc3)c(-c3ccccc3)c2)s1	172	51	1380	2030	> 50	–	–	–	–	–	–	–
O=c1[nH]c2ccccc2n1C1CCN(Cc2ccc(-c3ncc(-c4nnn[nH]4)cc3-c3ccccc3)cc2)CC1	273	150	> 50000	> 50000	–	–	–	–	–	–	–	> 50
